Source: US8084457B2, “Pharmaceutically active 4,6-disubstituted aminopyrimidine derivatives as modulators of protein kinases” (Lead Discovery Center GmbH, priority 2003, dated 2011)

Columns and labels:
Format in all cases: biochemical
Conditions in all cases: 10 μM of compound, in comparison to DMSO (0% inhibition)
CDK1 = CDK1 (Homo sapiens, UniProt P06493); experiment: General kinase assay, selectivity panel: CDK1
Outline: (§1)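 Radiometric filter-binding assay: kinase, substrate and ATP with [γ-33P]ATP were incubated with compound for 1 hr at room temperature, stopped with EDTA and captured on phosphocellulose filters washed with 0.75% H3PO4. Radioactivity was quantified by scintillation counting, and values are % inhibition at 10 μM compound relative to DMSO control.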

cMet = cMet (Homo sapiens, UniProt P08581); experiment: General kinase assay, selectivity panel: cMet
Chain of cMet (P08581 25-1390): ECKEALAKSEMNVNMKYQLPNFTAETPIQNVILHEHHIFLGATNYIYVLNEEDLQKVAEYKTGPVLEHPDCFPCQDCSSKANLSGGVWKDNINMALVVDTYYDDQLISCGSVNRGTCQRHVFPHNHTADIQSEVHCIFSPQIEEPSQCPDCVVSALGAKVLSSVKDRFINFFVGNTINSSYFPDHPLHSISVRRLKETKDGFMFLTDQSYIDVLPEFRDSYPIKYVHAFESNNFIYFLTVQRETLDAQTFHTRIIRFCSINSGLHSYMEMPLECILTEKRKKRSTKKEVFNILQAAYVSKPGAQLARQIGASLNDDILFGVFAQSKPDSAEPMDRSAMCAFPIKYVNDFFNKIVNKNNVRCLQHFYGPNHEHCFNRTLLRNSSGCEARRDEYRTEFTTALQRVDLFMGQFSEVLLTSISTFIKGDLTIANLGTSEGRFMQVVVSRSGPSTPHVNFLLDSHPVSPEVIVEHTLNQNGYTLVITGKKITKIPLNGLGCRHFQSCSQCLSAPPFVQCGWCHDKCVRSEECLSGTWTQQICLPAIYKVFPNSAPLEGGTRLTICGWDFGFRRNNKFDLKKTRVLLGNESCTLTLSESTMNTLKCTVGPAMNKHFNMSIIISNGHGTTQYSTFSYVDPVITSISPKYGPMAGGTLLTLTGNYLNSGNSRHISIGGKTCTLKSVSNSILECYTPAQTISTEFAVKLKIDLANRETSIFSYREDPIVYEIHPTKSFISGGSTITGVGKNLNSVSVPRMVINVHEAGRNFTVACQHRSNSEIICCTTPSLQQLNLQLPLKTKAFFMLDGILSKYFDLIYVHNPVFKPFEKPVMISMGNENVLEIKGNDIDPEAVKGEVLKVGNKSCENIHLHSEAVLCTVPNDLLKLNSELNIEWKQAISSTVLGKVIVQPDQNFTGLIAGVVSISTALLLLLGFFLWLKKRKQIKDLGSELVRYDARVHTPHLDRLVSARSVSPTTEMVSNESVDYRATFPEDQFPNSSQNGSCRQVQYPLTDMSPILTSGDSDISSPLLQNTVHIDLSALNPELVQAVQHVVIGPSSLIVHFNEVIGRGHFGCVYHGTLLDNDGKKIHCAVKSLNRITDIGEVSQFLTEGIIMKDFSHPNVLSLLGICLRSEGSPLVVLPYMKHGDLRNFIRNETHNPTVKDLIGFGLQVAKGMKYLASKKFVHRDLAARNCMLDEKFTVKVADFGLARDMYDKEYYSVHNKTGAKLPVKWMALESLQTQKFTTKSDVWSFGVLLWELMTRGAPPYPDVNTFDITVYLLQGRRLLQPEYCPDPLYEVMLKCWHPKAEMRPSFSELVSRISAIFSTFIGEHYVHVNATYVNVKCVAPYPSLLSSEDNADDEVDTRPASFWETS
Protocol: (§2) The inhibitory effect of compounds according to the present invention on the activity of protein kinases, depicted in Table 1, can be measured according to the following protocol:
(§3) Pipettinq Sequence: • 1) Add 10 μl 4 fold concentrated Substrate+4 fold concentrated ATP in 3 fold concentrated Reaction Buffer to each well of Assay Plate • 2) Add 10 μl 4 fold concentrated inhibitor in 4% DMSO in H2O to each well except to C− and C+ wells • 3) Add 10 μl 4% DMSO in H2O to C− and C+ wells • 4) Add 10 μl 500 mM EDTA in H2O to − wells • 5) Add 10 μl 50 μCi/ml Adenosine 5′-[γ-^33P]triphosphate in H2O to each well • 6) Add 10 μl 4 fold concentrated kinase in Reaction Buffer to each well • 7) Incubate 1 hr at room temperature • 8) Add 10 μl 50 mM EDTA in H2O to each well except to C− wells • 9) Prepare MAPH plates by adding 200 μl 0.75% H3PO4 to each well • 10) Exhaust 0.75% H3PO4 using Millipore vacuum station • 11) Add 60 μl 0.75% H3PO4 to each well of MAPH Filter Plate • 12) Transfer 30 μl sample per well from Assay Plate to corresponding well of MAPH Filter Plate • 13) Incubate 30 min at room temperature • 14) Wash each well of MAPH Filter Plates 3× with 200 μl 0.75% H3PO4 using Millipore vacuum station. • 15) Add 20 μl Scintillation Liquid to each well of MAPH Filter Plate • 16) Seal MAPH Filter Plate • 17) Store MAPH Filter Plate 30 min in darkness • 18) Quantify radioactivity
(§4) The activity of these protein kinases is depicted as % inhibition in the presence of 10 μM of compound in comparison to DMSO (0% inhibition).

GSK-3β = GSK-3β (Homo sapiens, UniProt P49841); experiment: General kinase assay, selectivity panel: GSK-3β
Chain of GSK-3β (P49841 whole entry, species assumed): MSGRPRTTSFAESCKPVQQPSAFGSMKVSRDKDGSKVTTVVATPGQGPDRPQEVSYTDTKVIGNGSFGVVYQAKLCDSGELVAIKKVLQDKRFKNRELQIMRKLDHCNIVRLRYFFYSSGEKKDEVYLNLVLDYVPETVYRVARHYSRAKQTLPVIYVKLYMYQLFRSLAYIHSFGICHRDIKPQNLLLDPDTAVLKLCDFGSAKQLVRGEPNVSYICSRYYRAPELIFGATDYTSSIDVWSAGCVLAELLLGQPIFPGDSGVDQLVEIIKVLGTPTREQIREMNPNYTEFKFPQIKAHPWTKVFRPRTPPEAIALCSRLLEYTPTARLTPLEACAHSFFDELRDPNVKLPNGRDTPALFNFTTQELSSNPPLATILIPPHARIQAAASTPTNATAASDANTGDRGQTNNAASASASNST
Outline: as §1

EGFR = EGFR (Homo sapiens, UniProt P00533); experiment: General kinase assay, selectivity panel: EGFR
Chain of EGFR (P00533 25-1210, species assumed): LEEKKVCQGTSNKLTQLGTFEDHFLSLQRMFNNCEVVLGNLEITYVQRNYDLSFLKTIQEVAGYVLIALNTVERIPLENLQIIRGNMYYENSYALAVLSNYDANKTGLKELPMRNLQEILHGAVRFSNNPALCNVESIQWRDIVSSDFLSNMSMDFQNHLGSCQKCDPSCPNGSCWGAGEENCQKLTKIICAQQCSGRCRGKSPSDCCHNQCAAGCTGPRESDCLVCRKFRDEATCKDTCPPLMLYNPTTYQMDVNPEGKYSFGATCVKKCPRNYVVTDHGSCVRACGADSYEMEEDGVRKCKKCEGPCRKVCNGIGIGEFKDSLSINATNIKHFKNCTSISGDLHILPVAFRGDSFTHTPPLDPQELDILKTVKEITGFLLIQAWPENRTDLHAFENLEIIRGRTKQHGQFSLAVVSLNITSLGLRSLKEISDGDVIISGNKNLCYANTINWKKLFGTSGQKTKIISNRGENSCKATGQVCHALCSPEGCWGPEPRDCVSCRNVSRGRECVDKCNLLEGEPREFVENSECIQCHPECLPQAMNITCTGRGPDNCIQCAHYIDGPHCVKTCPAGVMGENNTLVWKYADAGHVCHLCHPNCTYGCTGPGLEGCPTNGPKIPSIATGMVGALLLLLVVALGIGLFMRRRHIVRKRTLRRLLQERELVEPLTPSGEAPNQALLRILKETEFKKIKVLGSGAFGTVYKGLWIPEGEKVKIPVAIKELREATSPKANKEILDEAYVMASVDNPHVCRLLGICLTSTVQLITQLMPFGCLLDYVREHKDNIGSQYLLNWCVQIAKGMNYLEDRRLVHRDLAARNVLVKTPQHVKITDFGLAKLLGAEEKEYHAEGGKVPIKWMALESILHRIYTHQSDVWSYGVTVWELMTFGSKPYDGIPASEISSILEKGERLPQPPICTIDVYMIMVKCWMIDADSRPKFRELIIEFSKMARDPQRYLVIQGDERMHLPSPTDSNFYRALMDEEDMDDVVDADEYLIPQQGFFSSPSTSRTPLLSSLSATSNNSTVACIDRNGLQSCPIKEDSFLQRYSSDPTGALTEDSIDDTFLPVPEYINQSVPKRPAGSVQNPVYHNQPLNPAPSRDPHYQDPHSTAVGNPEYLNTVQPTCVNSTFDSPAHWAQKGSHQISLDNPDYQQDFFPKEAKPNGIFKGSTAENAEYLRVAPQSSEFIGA
Outline: as §1

p56 Lck = p56 Lck (Homo sapiens, UniProt P06239); experiment: General kinase assay, selectivity panel: p56 Lck
Chain of p56 Lck (P06239 whole entry): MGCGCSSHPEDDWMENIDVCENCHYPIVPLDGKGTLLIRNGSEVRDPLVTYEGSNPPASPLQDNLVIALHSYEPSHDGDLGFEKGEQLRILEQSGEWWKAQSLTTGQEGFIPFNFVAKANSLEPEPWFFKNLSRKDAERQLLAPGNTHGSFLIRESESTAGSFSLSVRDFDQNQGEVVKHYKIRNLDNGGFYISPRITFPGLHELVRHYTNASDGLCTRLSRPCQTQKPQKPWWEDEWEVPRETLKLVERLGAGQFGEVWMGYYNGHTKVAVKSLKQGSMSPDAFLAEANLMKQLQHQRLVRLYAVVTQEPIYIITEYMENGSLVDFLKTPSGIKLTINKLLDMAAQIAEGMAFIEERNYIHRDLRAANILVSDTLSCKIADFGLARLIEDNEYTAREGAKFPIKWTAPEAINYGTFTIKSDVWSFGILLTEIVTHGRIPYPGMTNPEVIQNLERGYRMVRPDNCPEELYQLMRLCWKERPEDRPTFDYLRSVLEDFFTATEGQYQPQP
Outline: as §1

Abl = Abl (Homo sapiens, UniProt P00519); experiment: General kinase assay, selectivity panel: Abl
Protocol: as §2, §3, §4

c-Src = c-Src (Homo sapiens, UniProt P12931); experiment: General kinase assay, selectivity panel: c-Src
Chain of c-Src (P12931 whole entry, species assumed): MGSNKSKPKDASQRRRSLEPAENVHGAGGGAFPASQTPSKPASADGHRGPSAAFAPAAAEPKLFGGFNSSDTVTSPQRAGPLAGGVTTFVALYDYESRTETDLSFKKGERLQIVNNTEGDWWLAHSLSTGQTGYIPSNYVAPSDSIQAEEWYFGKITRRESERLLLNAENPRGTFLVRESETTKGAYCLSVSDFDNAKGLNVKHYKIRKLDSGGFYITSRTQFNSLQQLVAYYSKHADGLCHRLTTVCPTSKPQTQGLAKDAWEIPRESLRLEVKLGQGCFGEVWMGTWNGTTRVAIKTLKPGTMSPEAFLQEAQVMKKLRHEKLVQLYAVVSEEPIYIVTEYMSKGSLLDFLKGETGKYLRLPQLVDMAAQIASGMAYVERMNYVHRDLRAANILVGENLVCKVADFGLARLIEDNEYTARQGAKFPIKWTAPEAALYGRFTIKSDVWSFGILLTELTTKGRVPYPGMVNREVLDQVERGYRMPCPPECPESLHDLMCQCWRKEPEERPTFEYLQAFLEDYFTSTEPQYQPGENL
Protocol: as §2, §3, §4

c-Kit = c-Kit (Homo sapiens, UniProt P10721); experiment: General kinase assay, selectivity panel: c-Kit
Protocol: as §2, §3, §4

PDGFR = experiment: General kinase assay, selectivity panel: PDGFR
Protocol: as §2, §3, §4

Chain of CDK1 (P06493 whole entry, species assumed): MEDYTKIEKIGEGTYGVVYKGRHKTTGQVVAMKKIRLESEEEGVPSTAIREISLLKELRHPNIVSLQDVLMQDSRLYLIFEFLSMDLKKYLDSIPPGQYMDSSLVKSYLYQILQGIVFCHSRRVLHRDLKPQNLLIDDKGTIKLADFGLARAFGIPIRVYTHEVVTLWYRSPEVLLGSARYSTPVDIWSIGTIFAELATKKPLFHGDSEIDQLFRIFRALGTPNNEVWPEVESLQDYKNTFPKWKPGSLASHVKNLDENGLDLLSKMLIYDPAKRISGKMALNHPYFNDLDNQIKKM
Chain of CDK1 (P14635 whole entry partner, species assumed): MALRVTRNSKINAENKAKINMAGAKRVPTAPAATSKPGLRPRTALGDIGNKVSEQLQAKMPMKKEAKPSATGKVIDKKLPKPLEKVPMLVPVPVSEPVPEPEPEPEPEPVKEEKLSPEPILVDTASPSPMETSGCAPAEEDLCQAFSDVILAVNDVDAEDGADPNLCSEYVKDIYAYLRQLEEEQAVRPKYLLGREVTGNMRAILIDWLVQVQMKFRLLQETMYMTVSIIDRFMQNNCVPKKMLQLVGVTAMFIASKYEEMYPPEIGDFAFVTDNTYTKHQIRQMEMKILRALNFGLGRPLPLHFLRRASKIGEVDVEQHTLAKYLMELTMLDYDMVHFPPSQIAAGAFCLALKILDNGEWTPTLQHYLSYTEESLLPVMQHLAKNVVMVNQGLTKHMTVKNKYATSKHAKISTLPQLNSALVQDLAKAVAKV

SMILES	CDK1 (% inhibition) (CDK1)	cMet (% inhibition) (cMet)	GSK-3β (% inhibition) (GSK-3β)	EGFR (% inhibition) (EGFR)	p56 Lck (% inhibition) (p56 Lck)	Abl (% inhibition) (Abl)	c-Src (% inhibition) (c-Src)	c-Kit (% inhibition) (c-Kit)	PDGFR (% inhibition) (PDGFR)
COc1ccccc1-c1cc(Nc2ccc(C(=O)N[C@@H]3CCCC[C@H]3N)cc2)ncn1 (racemic) [Compound 83]	a (inhibition greater than 80%: a)	b (inhibition between 80 and 50%: b)	c (inhibition between 50 and 30%: c)	b (inhibition between 80 and 50%: b)	b (inhibition between 80 and 50%: b)	c (inhibition between 50 and 30%: c)	b (inhibition between 80 and 50%: b)	b (inhibition between 80 and 50%: b)	b (inhibition between 80 and 50%: b)
NC(=O)c1ccc(Nc2cc(-c3ccccc3OCc3ccccc3)ncn2)cc1 [Compound 95]	a (inhibition greater than 80%: a)		a (inhibition greater than 80%: a)	b (inhibition between 80 and 50%: b)	b (inhibition between 80 and 50%: b)		b (inhibition between 80 and 50%: b)		c (inhibition between 50 and 30%: c)
